Test results: patent US8067447B2, “Modulators of glucocorticoid receptor, AP-1, and/or NF-κB activity and use thereof” (Bristol-Myers Squibb Company, priority 2006, dated 2011)
Like-named read-outs stand apart in the source and are kept apart here.

What was measured:
[1] = target: T1, human full-length glucocorticoid receptor (Homo sapiens, UniProt P04150); experiment: Glucocorticoid Receptor Binding Assay (II), fluorescence polarization competitor kit (Fluormone GS1); conditions: cell lysate with recombinant human full-length GR, 1 nM Fluormone GS1, FP
T1 construct: a cell lysate containing recombinantly expressed human full-length glucocorticoid receptor; purchased PanVera Co., Madison, Wis; P2816
T1 sequence (P04150 1-777): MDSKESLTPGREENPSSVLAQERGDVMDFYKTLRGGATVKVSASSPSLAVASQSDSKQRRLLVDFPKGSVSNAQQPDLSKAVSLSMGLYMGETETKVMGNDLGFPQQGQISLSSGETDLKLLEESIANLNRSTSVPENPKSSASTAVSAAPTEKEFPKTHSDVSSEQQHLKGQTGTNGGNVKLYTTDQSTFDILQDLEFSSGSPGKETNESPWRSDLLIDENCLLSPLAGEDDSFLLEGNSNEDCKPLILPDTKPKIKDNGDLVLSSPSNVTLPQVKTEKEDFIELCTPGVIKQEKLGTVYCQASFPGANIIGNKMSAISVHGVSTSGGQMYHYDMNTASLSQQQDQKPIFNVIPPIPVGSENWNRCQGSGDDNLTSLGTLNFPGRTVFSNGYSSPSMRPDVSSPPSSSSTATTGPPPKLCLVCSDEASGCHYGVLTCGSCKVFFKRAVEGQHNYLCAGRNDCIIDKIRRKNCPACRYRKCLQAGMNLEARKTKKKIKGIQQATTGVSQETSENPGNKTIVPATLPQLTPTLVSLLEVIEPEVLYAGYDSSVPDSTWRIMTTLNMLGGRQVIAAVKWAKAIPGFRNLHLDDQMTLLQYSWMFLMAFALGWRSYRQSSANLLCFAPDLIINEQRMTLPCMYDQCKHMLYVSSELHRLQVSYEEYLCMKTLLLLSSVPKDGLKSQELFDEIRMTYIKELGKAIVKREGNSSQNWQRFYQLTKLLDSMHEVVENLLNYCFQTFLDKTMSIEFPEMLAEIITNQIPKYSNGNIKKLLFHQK
Experimental: In order to measure the binding of compounds on the glucocorticoid receptor a commercially available kit was used (Glucocorticoid receptor competitor assay kit, PanVera Co., Madison, Wis., P2816). Briefly, a cell lysate containing recombinantly expressed human full-length glucocorticoid receptor was mixed with a fluorescently labeled glucocorticoid (1 nM Fluormone GS1) in the presence or absence of test compound. After one hour at room temperature, the fluorescence polarization (FP) of the samples were measured.

[2] = tested on: AP-1 induced transcriptional activity; experiment: Cellular Transrepressional Assay (AP-1 luciferase reporter in A549 cells, PMA-activated); assay type: cell-based; conditions: A549 cells with 7x AP-1 luciferase reporter, 10 ng/ml PMA, read-out: AP-1 (EC50, nM) (Cellular Transrepression Assay)
In short: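 Test molecules spanning 0.1 nM to 40 μM were co-incubated 7 h with 10 ng/ml PMA in A549 cells stably carrying a 7× AP-1-driven luciferase plasmid. Repression, as % reduction of PMA-alone luminescence measured 10 min after reagent addition, was curve-fitted to give EC50s.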

[3] = target: T2, human glucocorticoid receptor (Homo sapiens, UniProt P04150); experiment: Glucocorticoid Receptor Binding Assay (I), fluorescence polarization competitor kit (Fluormone GS Red); conditions: purified human recombinant full-length GR 2 nM, 1 nM Fluormone GS Red, FP; read-out: GR (Ki, nM) (GR Binding Assay (I))
T2 construct: purified human recombinant full-length glucocorticoid receptor (2 nM); purchased Invitrogen Part #2893
T2 sequence (P04150 1-777): T1 sequence (P04150 1-777)
Experimental: Briefly, purified human recombinant full-length glucocorticoid receptor (2 nM) was mixed with fluorescently labeled glucocorticoid (1 nM Fluormone GS Red) in the presence or absence of test compound. After two hour incubation at room temperature in the dark, the fluorescence polarization (FP) of the samples was measured. […] Test compounds were analyzed in the concentration range from 8.5E-05 μM to 5 μM.

Structure (SMILES)	Ki [1] [nM]	EC50 ([2]; Homo sapiens, A549, 7 h) [nM]	EC50 ([2]; 7 hours) [nM]	Ki [3] [nM]
CN(C)C(=O)c1cc(F)ccc1-n1ncc2cc([C@H](c3ccccc3)C(C)(C)C(=O)Nc3nncs3)ccc21 [Example 158, 2-(5-((S)-3-(1,3,4-Thiadiazol-2-ylamino)-2,2-dimethyl-3-oxo-1-phenylpropyl)-1H-indazol-1-yl)-5-fluoro-N,N-dimethylbenzamide]	825	2500		
Cc1cccc(C(c2ccc3c(cnn3-c3ccc(F)cc3)c2)C(C)(C)C(=O)Nc2nncs2)c1 (stereo not shown) [Example 50, 3-(1-(4-fluorophenyl)-1H-indazol-5-yl)-2,2-dimethyl-N-(1,3,4-thiadiazol-2-yl)-3-m-tolylpropanamide]	0.92	9.7		
CC(C)(C(=O)NC1CCCC1)C(Cc1ccccc1)c1ccc2c(cnn2-c2ccc(F)cc2)c1 (single isomer, unassigned) [Example 130, N-cyclopentyl-3-(1-(4-fluorophenyl)-1H-indazol-5-yl)-2,2-dimethyl-4-phenylbutanamide]	6.1	> 10000		
CC(C)(C(=O)Nc1nncs1)C(c1cccc(F)c1)c1ccc2c(cnn2-c2ccc(F)cc2)c1 (stereo not shown) [Example 52, 3-(3-fluorophenyl)-3-(1-(4-fluorophenyl)-1H-indazol-5-yl)-2,2-dimethyl-N-(1,3,4-thiadiazol-2-yl)propanamide]	1.3	8.1		
C=CCC(c1ccc2c(cnn2-c2ccc(F)cc2)c1)C(C)(C)C(=O)Nc1nncs1 (stereo not shown) [Example 45, 3-(1-(4-fluorophenyl)-1H-indazol-5-yl)-2,2-dimethyl-N-(1,3,4-thiadazol-2-yl)hex-5-enamide]	2.6	52		
CC(C)(C(=O)NC1CCC1)C(Cc1ccccc1)c1ccc2c(cnn2-c2ccc(F)cc2)c1 (stereo not shown) [Example 129, N-cyclobutyl-3-(1-(4-fluorophenyl)-1H-indazol-5-yl)-2,2-dimethyl-4-phenylbutanamide]	0.87	106		
CC(C)(C(=O)Nc1nncs1)C(c1ccc(F)cc1)c1ccc2c(cnn2-c2ccc(F)cc2)c1 (stereo not shown) [Example 53, 3-(4-fluorophenyl)-3-(1-(4-fluorophenyl)-1H-indazol-5-yl)-2,2-dimethyl-N-(1,3,4-thiadiazol-2-yl)propanamide]	1.9	13		
CC(C)(C(=O)Nc1nncs1)[C@@H](c1ccccc1)c1ccc2c(cnn2-c2ccc(F)cc2C(N)=O)c1 [Example 156, 2-(5-((S)-3-(1,3,4-Thiadiazol-2-ylamino)-2,2-dimethyl-3-oxo-1-phenylpropyl)-1H-indazol-1-yl)-5-fluorobenzamide]	22	135		
Cc1cccc(C(c2ccc3c(cnn3-c3ccc(F)cc3)c2)C(C)(C)C(=O)Nc2nccs2)c1 (stereo not shown) [Example 41, 3-(1-(4-fluorophenyl)-1H-indazol-5-yl)-2,2-dimethyl-N-(thiazol-2-yl)-3-m-tolylpropanamide]	2.3	2.6		
O=C(Nc1nncs1)C(c1ccccc1)C(c1ccccc1)c1ccc2c(cnn2-c2ccc(F)cc2)c1 (single isomer, unassigned) [Example 145-isomerA, 3-(1-(4-fluorophenyl)-1H-indazol-5-yl)-2,3-diphenyl-N-(1,3,4-thiadiazol-2-yl)propanamide]	18		5000	
CC(=O)OCC(C)(C(=O)Nc1nncs1)C(c1ccccc1)c1ccc2c(cnn2-c2ccc(F)cc2)c1 (stereo not shown) [Example 154, 3-(1,3,4-Thiadiazol-2-ylamino)-2-((1-(4-fluorophenyl)-1H-indazol-5-yl)(phenyl)methyl)-2-methyl-3-oxopropyl acetate]	2.6	15		
O=C(Nc1nncs1)C1(C(c2ccccc2)c2ccc3c(cnn3-c3ccc(F)cc3)c2)CCCCC1 (stereo not shown) [Example 150, 1-((1-(4-fluorophenyl)-1H-indazol-5-yl)(phenyl)methyl)-N-(1,3,4-thiadiazol-2-yl)cyclohexanecarboxamide]	4	13		
CC(C)(C(=O)Nc1nncs1)[C@@H](c1ccccc1)c1ccc2c(cnn2-c2ccc(F)cc2NC(N)=O)c1 [Example 161, (3S)-3-(1-(4-Fluoro-2-ureidophenyl)-1H-indazol-5-yl)-2,2-dimethyl-3-phenyl-N-(1,3,4-thiadiazol-2-yl)propanamide]	32	5000		
CC(C)(CC(=O)Nc1nccs1)c1ccc2c(cnn2-c2ccc(F)cc2)c1 [Example 114, 3-(1-(4-Fluorophenyl)-1H-indazol-5-yl)-3-methyl-N-(thiazol-2-yl)butanamide]	11	> 10000		
COc1cc(F)ccc1-n1ncc2cc([C@H](c3ccccc3)C(C)(C)C(=O)Nc3nncs3)ccc21 [Example 96, (3S)-3-(1-(4-fluoro-2-methoxyphenyl)-1H-indazol-5-yl)-2,2-dimethyl-3-phenyl-N-(1,3,4-thiadiazol-2-yl)propanamide]	3.1	23		
O=C(Nc1nncs1)C(c1ccccc1)C(c1ccccc1)c1ccc2[nH]ncc2c1 (single isomer, unassigned) [152-diast A, 3-(1H-Indazol-5-yl)-2,3-diphenyl-N-(1,3,4-thiadiazol-2-yl)propanamide]	9.8	2500		
CC(C)=CC(c1ccc2c(cnn2-c2ccc(F)cc2)c1)C(C)(C)C(=O)Nc1nncs1 (stereo not shown) [Example 56, 3-(1-(4-fluorophenyl)-1H-indazol-5-yl)-2,2,5-trimethyl-N-(1,3,4-thiadiazol-2-yl)hex-4-enamide]	1.3	4		
CC(C)(C(=O)Nc1nccs1)C(c1cccc(F)c1)c1ccc2c(cnn2-c2ccc(F)cc2)c1 (stereo not shown) [Example 43]	2.9	2.4		
CC(C)(C(=O)Nc1nncs1)C1(c2ccc3c(cnn3-c3ccc(F)cc3)c2)CCCCC1 [Example 101, 2-(1-(1-(4-Fluorophenyl)-1H-indazol-5-yl)cyclohexyl)-2-methyl-N-(1,3,4-thiadiazol-2-yl)propanamide]	1	36		
O=C(Nc1nncs1)C(c1ccccc1)C(c1ccccc1)c1ccc2[nH]ncc2c1 (single isomer, unassigned) [152-diast B, 3-(1H-Indazol-5-yl)-2,3-diphenyl-N-(1,3,4-thiadiazol-2-yl)propanamide]	1150		5000	
CC(C)(C(=O)Nc1nccs1)C(c1ccccc1)c1ccc2[nH]cc(C=O)c2c1 (stereo not shown) [Example 109, 3-(3-Formyl-1H-indol-5-yl)-2,2-dimethyl-3-phenyl-N-(thiazol-2-yl)propanamide]		> 10000		59
CCC(c1ccc2c(cnn2-c2ccc(F)cc2)c1)C(C)(C)C(=O)Nc1nccs1 (stereo not shown) [Example 39, 3-(1-(4-Fluorophenyl)-1H-indazol-5-yl)-2,2-dimethyl-N-(thiazol-2-yl)pentanamide]		87		9.8
CC(C)(C(=O)Nc1nncs1)C(c1ccccc1)c1ccc2c(cnn2CCCO)c1 (stereo not shown) [Example 75, 3-(1-(3-hydroxypropyl)-1H-indazol-5-yl)-2,2-dimethyl-3-phenyl-N-(1,3,4-thiadiazol-2-yl)propanamide]		1020		17
CC(C)(C(=O)Nc1nncs1)[C@@H](c1ccccc1)c1ccc2c(cnn2-c2ccc(F)cc2C(=O)O)c1 [Example 157, 2-(5-((S)-3-(1,3,4-Thiadiazol-2-ylamino)-2,2-dimethyl-3-oxo-1-phenylpropyl)-1H-indazol-1-yl)-5-fluorobenzoic acid]	634			
CC(C)(C(=O)Nc1nncs1)C(c1ccccc1)c1ccc2[nH]c(-c3nccs3)cc2c1 (stereo not shown) [Example 118, 2,2-dimethyl-3-phenyl-N-(1,3,4-thiadiazol-2-yl)-3-(2-(thiazol-2-yl)-1H-indol-5-yl)propanamide]		2930		95
